In US9512315B2, “Quenching dye for labeling biomolecules and method for preparing the same” (DKC CORPORATION, priority 2013, dated 2016):
Several values for one entry are separate records, joined by “and”; a condition that tells them apart may be missing. Equal entries are not always repeated.

Assays:
Type in all cases: physicochemical
[1] = Test Example 1: comparison of absorption spectra; settings: for negative absorption: FIG. 1, range of 750-800 nm
Experimental: (§1) LC/MS was measured by ESI (electrospray ionization) using the LC/MSD SL of Agilent Technologies. The absorption spectrum and maximum absorption wavelength (λabs) of the synthesized dye were measured with Lambda 45 of PerkinElmer. The emission spectrum and maximum emission wavelength (λfl) were measured with LS-55 of PerkinElmer.
(§2) In order to investigate the absorption intensity and spectrum of the anthraquinone compound according to the present disclosure, the absorption spectra of the compounds of Example 1 and Example 6 and commercially available BHQ-3 as a comparative example were compared. Stock solutions were prepared by dissolving the compounds of Example 1 and Example 6 according to the present disclosure in distilled water. BHQ-3 was dissolved in a small amount of DMSO according to the manufacturer's instructions and diluted with distilled water.

[2] = Solubility in water (stock solution preparation)
Experimental: as §2

[3] = Maximum absorption wavelength (λabs) of the synthesized dye in PBS
Experimental: as §1

negative absorption [1]	range of absorption spectra, normalized to the maximum absorption intensity ([1]; FIG. 2)	solubility in water [2]	λabs (maximum absorption wavelength) [3]	SMILES
negative (−) absorption	300-750 nm	not dissolved in water		CCN(CC)c1ccc2nc3ccc(/N=N/c4ccc(N(C)CCCC(=O)O)cc4)cc3[n+](-c3ccccc3)c2c1 [BHQ-3, reference compound]
did not show negative absorption			481 nm and 626 nm	CN(CCCCCC(=O)O)c1ccc(/N=N/c2ccc(Nc3cc(S(=O)(=O)O)c(N)c4c3C(=O)c3ccccc3C4=O)c(S(=O)(=O)O)c2)cc1 [Example 1]
			481 nm and 626 nm	C=CS(=O)(=O)CCNC(=O)CCCCCN(C)c1ccc(/N=N/c2ccc(Nc3cc(S(=O)(=O)O)c(N)c4c3C(=O)c3ccccc3C4=O)c(S(=O)(=O)O)c2)cc1 [Example 3]
			472 nm and 624 nm	CN(CCCCCCCC(=O)O)c1ccc(/N=N/c2ccc(Nc3cc(S(=O)(=O)O)c(N)c4c3C(=O)c3ccccc3C4=O)c(S(=O)(=O)O)c2)cc1 [Example 5]
did not show negative absorption				CN(CCCCCCCC(=O)ON1C(=O)CCC1=O)c1ccc(/N=N/c2ccc(Nc3cc(S(=O)(=O)O)c(N)c4c3C(=O)c3ccccc3C4=O)c(S(=O)(=O)O)c2)cc1 [Example 6]
			472 nm and 624 nm	C=CS(=O)(=O)CCNC(=O)CCCCCCCN(C)c1ccc(/N=N/c2ccc(Nc3cc(S(=O)(=O)O)c(N)c4c3C(=O)c3ccccc3C4=O)c(S(=O)(=O)O)c2)cc1 [Example 7]
